Consider 106 compounds from ChEMBL document CHEMBL3988442, “University of Dundee, Small-Polar-MMV Screening Library” (2021).

Each structure is given as a SMILES string. Some results are limits rather than exact numbers.

The target of this assay is ClpP1P2 (Mycobacterium tuberculosis (strain ATCC 25618 / H37Rv), UniProt P9WPC3+P9WPC5). Nature of the assay: in vitro assay to detect presence of AMC directly proportional to the activity of ClpP1P2. GHDDI collaboration. Type of assay: functional.
Sequence of ClpP1P2 (P9WPC5 whole entry): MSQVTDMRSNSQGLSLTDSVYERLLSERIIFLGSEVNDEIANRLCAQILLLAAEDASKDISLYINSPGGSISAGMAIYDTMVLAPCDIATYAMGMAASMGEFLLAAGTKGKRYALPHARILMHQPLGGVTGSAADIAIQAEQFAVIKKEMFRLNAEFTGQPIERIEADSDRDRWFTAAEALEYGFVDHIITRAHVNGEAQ
Sequence of ClpP1P2 (P9WPC3 whole entry): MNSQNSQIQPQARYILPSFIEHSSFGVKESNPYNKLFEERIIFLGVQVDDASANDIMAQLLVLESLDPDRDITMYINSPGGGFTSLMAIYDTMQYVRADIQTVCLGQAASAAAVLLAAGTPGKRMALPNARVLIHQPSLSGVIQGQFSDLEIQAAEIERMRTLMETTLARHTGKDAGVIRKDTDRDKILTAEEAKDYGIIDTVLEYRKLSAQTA

Turning to `Cc1nc(C(=O)N(CC(=O)N(C)C)CC(F)(F)F)c2ccccn12`, the IC50 is over 100 µM.
With `CNc1cncc(C2CCCN2C(=O)CCn2ccnc2C(C)C)n1` (stereo unspecified), the IC50 is over 100 µM.
In the case of `Cc1cc(C)n(CC2CN(c3cnc4ccccc4n3)CCO2)n1` (stereo unspecified), the IC50 was over 100 µM.
With `c1ccc2nc(N3CCOC(Cn4cccn4)C3)cnc2c1` (stereo unspecified), the IC50 was over 100 µM.
`CN1CCC(c2nccnc2Nc2cnccn2)CC1`: the IC50 is over 100 µM.
The figure for `Cc1nc(CN2CCCN(C(=O)c3sccc3C#N)CC2)cs1` is over 100 µM.
In the case of `Cc1nc(C)n(CC2CCCN2CCC(=O)N2CCCCC2)n1` (stereo unspecified), the IC50 is over 100 µM.
Consider `OCCNc1nc(NCCc2ccccc2)nc2nccnc12`, for which the IC50 was over 100 µM.
`CN1CCN(c2ncnc3c2c(C(=O)NC2CC2)c2ccccn23)CC1`: the IC50 is over 100 µM.
For `O=S1(=O)CCC(CNc2cc(-c3ccccc3)nc3ccnn23)C1` (stereo unspecified) the value was over 100 µM; for `Cc1cccc2c1NC1(CCCC1)NC2=O`, over 100 µM.
`CN(C)S(=O)(=O)N1CCC(c2n[nH]cc2-c2ccnc(N)c2)C1` (stereo unspecified): the concentration for half-maximal inhibition (IC50) is over 100 µM.
In the case of `CCCc1nc(CNCC2CCCN2c2cccnn2)no1` (stereo unspecified), the IC50 was over 100 µM.
Turning to `O=C(NCC1CCCOC1)c1ccc(-c2cccs2)[nH]c1=O` (stereo unspecified), the IC50 is over 100 µM.
On to `Cc1csc2ncc(-c3ccnc(N4CCN(C)CC4)n3)c(=O)n12`, for which the IC50 was over 100 µM.
Turning to `O=C(N1CCCC(n2cncn2)C1)C1(c2ccc(Cl)cc2)CCC1` (stereo unspecified), the IC50 is over 100 µM.
The figure for `CC(=O)N1CCc2[nH]cnc2C1C1=CCCN(CCn2cccc2)C1` (stereo unspecified) is over 100 µM; for `CCOC(=O)CN(CC(F)(F)F)C(=O)c1nc(C)n2ccccc12` it is over 100 µM.
`N#Cc1c(C2CCOC2)cc(-c2ccc(N3CCCCC3)cc2)nc1N` (stereo unspecified): the IC50 was over 100 µM.
For the compound `CCCNC(=O)c1cc(-c2ccn(C(C)C)n2)n2ccccc12`, the IC50 is over 100 µM.
Consider `CC1CN(C(=O)CN(Cc2ccco2)Cc2cccs2)CCO1` (stereo unspecified), for which the IC50 is over 100 µM.
For the compound `CN(C)C(=O)CN1C[C@@H]2CC[C@H](C1)N(Cc1ccc(Cl)cc1Cl)C2`, the IC50 was over 100 µM.
In the case of `CN(Cc1ccccc1C#N)C1CCN(CCc2ccccn2)CC1`, the IC50 was over 100 µM.
For `O=C(NCCC(=O)N1CCCc2ccccc21)c1c(F)cccc1F` the value was over 100 µM.
The figure for `O=C1C(Nc2ccc3nccnc3n2)CCN1c1ccccc1F` (stereo unspecified) is over 100 µM; for `Cc1ccnc(NCCCN2CCc3ccccc32)n1` it is over 100 µM.
Regarding `CCCNC(=O)c1ccc(-c2ccco2)[nH]c1=O`, the IC50 was over 100 µM.
`Cn1c(CS(=O)(=O)c2ccc(Cl)cc2)cc(=O)n(C)c1=O`: the IC50 was over 100 µM.
Take `CC(=O)N1CCCCCC1C1CCN(c2ncccc2C#N)CC1` (stereo unspecified): the IC50 was over 100 µM.
With `Cc1cnn(CC2CCCCN2C(=O)c2nccnc2N)c1` (stereo unspecified), the IC50 was over 100 µM.
Take `COc1ccc2cc(CN(C)CCN3CCCCC3=O)c(=O)[nH]c2c1`: the IC50 was over 100 µM.
As to `CCN1CCCC1CNCc1cc2cc(OC)ccc2[nH]c1=O` (stereo unspecified), the IC50 is over 100 µM.
`O=C(NC1CCCC1)c1cnn2c(-c3ccco3)ccnc12`: the IC50 is over 100 µM.
Regarding `Cc1cnn(CCNCc2csc(-c3ccsc3)n2)c1`, the IC50 is over 100 µM.
Turning to `CC(C)=CCN1CCc2onc(-c3ccc(F)c(F)c3)c2C1`, the IC50 is over 100 µM.
The figure for `O=C1NC2(CCN(CC(=O)N3CCOCC3)CC2)Nc2ccccc21` is over 100 µM; for `Cc1nc2oc(C(=O)N3CCOCC3)c(N)c2c2c1CCCC2` it is over 100 µM.
As for `CC(Cn1cccn1)NC(=O)N1CCN(Cc2ccsc2)CC1` (stereo unspecified), the IC50 is over 100 µM.
For the compound `CCCn1[nH]cc/c1=N\C(=O)CN1CCn2c(nnc2C2CC2)C1`, the IC50 was over 100 µM.
`COCCn1cnc(-c2cc(C(=O)NC(C)C)c3ccccn23)c1`: the IC50 is over 100 µM.
As to `Cc1cc(C)n(-c2ccc3nnc(C)n3n2)n1`, the half-maximal inhibitory concentration (IC50) is over 100 µM.
For `CNC(=O)c1cc2c(nc1NC(C)C)CCN(C(=O)NC(C)C)CC2`, the IC50 was over 100 µM.
The figure for `Cc1ccc2[nH]c(=O)cc(C(=O)N[C@@H]3C[C@@H](CO)N(C)C3)c2c1` is over 100 µM; for `COc1cc2c(cc1-c1nc3c(cnn3C(C)C)[nH]1)OCO2` it is over 100 µM.
The figure for `Cc1nc(C)n(CC2CCCN(CC(=O)N3CCCC3)C2)n1` (stereo unspecified) is over 100 µM; for `CN(C)c1ncc(-c2cc(C(=O)N3CCCC3)n(CC3CC3)c2)cn1` it is over 100 µM; for `c1ccc(-n2cc(CN3CCCC3Cn3cccn3)nn2)cc1` (stereo unspecified) it is over 100 µM.
For `COCCCN1C(=O)CC[C@H]2CN(c3cnc4ccccc4n3)CC[C@H]21`, the IC50 was over 100 µM.
On to `Cc1noc2ncc(C(=O)NCC3CCS(=O)(=O)C3)cc12` (stereo unspecified), for which the IC50 was over 100 µM.
Regarding `CCC[C@@H]1CN(c2cncc(C(=O)N3CCOCC3)n2)C[C@H]1N(C)C`, the IC50 is over 100 µM.
For `Cc1ccc2cc(CN(C)Cc3ccccn3)c(=O)[nH]c2c1` the value was over 100 µM; for `CCOc1ccc2[nH]c(=O)c(CN3CCC(n4cnnc4)CC3)cc2c1`, over 100 µM; for `CNC(=O)c1cc2c(nc1NCC(C)C)CCN(CCOC)CC2`, over 100 µM.
The figure for `CCc1nc(CN2CCCC(NCc3nc(C)c(C)o3)C2)no1` (stereo unspecified) is over 100 µM; for `c1ccc2nc(N3CCOC(Cn4cncn4)C3)cnc2c1` (stereo unspecified) it is over 100 µM.
The figure for `CCCn1cc(-c2cc(-c3c[nH]cn3)c(C#N)c(N)n2)c(C)n1` is over 100 µM.
Consider `Cc1ncsc1CCC(=O)NC1CCN(c2ncccc2C#N)CC1`, for which the IC50 is over 100 µM.
Take `COc1cccc2ccc(N3CCC(O)(C(=O)O)CC3)nc12`: the IC50 was over 100 µM.
For the compound `CC(COCC(F)(F)F)NC(=O)c1ccc(-c2ccco2)[nH]c1=O` (stereo unspecified), the IC50 was over 100 µM.
For `CC1CCN(C(=O)C2CCN(c3ccc(Cl)cc3C#N)CC2)CC1`, the IC50 was over 100 µM.
In the case of `Cc1cc(NC(=O)CN2CCn3c(nnc3C(C)C)C2)no1`, the IC50 was over 100 µM.
For `Cc1ccc(S(=O)(=O)N2CCCC3(CCCN3S(C)(=O)=O)C2)cc1F` (stereo unspecified) the value was over 100 µM.
On to `COc1ccc2c(c1)Cc1c-2nc(N)c(C#N)c1C1CCOC1` (stereo unspecified), for which the IC50 is over 100 µM.
In the case of `O=C(NCCCO)c1cc(-c2cc[nH]n2)n2ccccc12`, the IC50 is over 100 µM.
As to `CCNC(=O)C1CCCN(c2ccc3ccc(F)cc3n2)C1` (stereo unspecified), the IC50 was over 100 µM.
The figure for `CC(C)n1ccc(-c2cc(C(=O)N3CCN(C)CC3)c3ccccn23)n1` is over 100 µM.
For `Oc1ccc(C2Nc3ccccc3C3=NCCCN32)cc1` (stereo unspecified), the half-inhibitory concentration (IC50) is over 100 µM.
Regarding `COc1ccc(S(N)(=O)=O)cc1C(=O)N(C)Cc1cc(C)on1`, the concentration for half-maximal inhibition (IC50) is over 100 µM.
Take `CCNc1ccnc(-c2ccnc3c2ccn3C)n1`: the IC50 is over 100 µM.
Regarding `COC(=O)c1cc(OC)ccc1NCC(=O)NCC(=O)N1CCCC1`, the IC50 was over 100 µM.
In the case of `NC(=O)CCC1CCCN(c2ccc3ccc(F)cc3n2)C1` (stereo unspecified), the IC50 is over 100 µM.
`CCS(=O)(=O)N1CCc2cc(C(=O)NC)c(NCC3CC3)nc2CC1`: the IC50 was over 100 µM.
Turning to `N#Cc1ccccc1N1CCCN(C(=O)CCc2ccsc2)CC1`, the IC50 was over 100 µM.
For `CN(C)CC1CN(c2cnc3ccccc3n2)CCO1` (stereo unspecified), the IC50 was over 100 µM.
`CN(C)CCC1CN(C(=O)c2cccc3c2OCC3)CCO1` (stereo unspecified): the IC50 is over 100 µM.
On to `O=C(c1cncc(NCC2COc3ccccc3C2)n1)N1CCOCC1` (stereo unspecified), for which the IC50 is over 100 µM.
Consider `Nc1ncc(-c2ccc(Cl)cc2)c(C2CCCNC2)n1` (stereo unspecified), for which the IC50 is over 100 µM.
The figure for `CNc1cnc(CC2COCCN(CCOc3ccccc3)C2)cn1` (stereo unspecified) is over 100 µM; for `CNC(=O)c1cc2c(nc1NCC(C)C)CCN(S(=O)(=O)N(C)C)CC2` it is over 100 µM; for `CNC(=O)c1cc(C)ccc1NCc1cn2cc(C)ccc2n1` it is over 100 µM.
On to `O=C(CN1CCC2(CC1)NC(=O)c1cc(Br)ccc1N2)NC1CC1`, for which the IC50 is over 100 µM.
For `CN(C)c1cc(C(=O)N2CCN(c3cc(C#N)ccn3)CC2)ccn1`, the IC50 is over 100 µM.
As for `O=C(NCCCn1cccn1)NCC(c1ccco1)N1CCCC1` (stereo unspecified), the IC50 is over 100 µM.
On to `CCN1CCCC1CNCc1cc2cc(OC)c(OC)cc2[nH]c1=O` (stereo unspecified), for which the IC50 is over 100 µM.
As to `Cc1ccc(C(=O)NC2CCN(C(=O)NCc3ccccn3)CC2)o1`, the IC50 was over 100 µM.
The figure for `Cc1nc(-c2nc(C(=O)N(C)C)c3ccccn23)cn1C(C)C` is over 100 µM; for `Cc1ncc2c(n1)CN(CC(=O)Nc1ccc(Cl)cn1)CC2` it is over 100 µM; for `CC(C)(C)c1ccc(OCC(=O)O)c(CN2C[C@H]3C[C@H](O)C[C@H]3C2)c1` it is over 100 µM.
`CC(C)Nc1oc(-c2ccc(S(=O)(=O)N(C)C)o2)nc1C#N`: the IC50 was over 100 µM.
With `CCN(CC1CCOC1)C(=O)Nc1ccc(OC)nc1` (stereo unspecified), the IC50 was over 100 µM.
On to `CC(c1ccccn1)N(C)Cc1cc2cc3c(cc2[nH]c1=O)OCO3` (stereo unspecified), for which the IC50 was over 100 µM.
In the case of `O=C1CCc2cc(NC(=O)C3CCCN3c3nccs3)ccc2N1` (stereo unspecified), the IC50 was over 100 µM.
`NC(=O)CC1CCCN(c2cncc(SCc3ccccc3)n2)C1` (stereo unspecified): the concentration for half-maximal inhibition (IC50) is over 100 µM.
Turning to `CCNc1cc2c(nn1)CCN(C(=O)c1nccnc1N)C2`, the IC50 was over 100 µM.
Turning to `CCc1ncc2c(n1)CN(CC(=O)Nc1cccnc1)CC2`, the IC50 is over 100 µM.
The figure for `CC(C)CNC(=O)c1cn(-c2ccccn2)c(=O)c2ccccc12` is over 100 µM; for `COc1ccc2c(c1OC)Cc1c-2nc(N)c(C#N)c1C1CCOC1` (stereo unspecified) it is over 100 µM.
For `CCC(CNC(=O)Nc1cnn(CC)c1)N1CCc2ccccc2C1` (stereo unspecified), the IC50 is over 100 µM.
The figure for `CC(C)n1cnc(-c2nc(C(=O)N3CCN(C)CC3)c3ccccn23)c1` is over 100 µM; for `CCN(CC(C)C#N)C(=O)CNc1cc(Cl)ccc1C(N)=O` (stereo unspecified) it is over 100 µM.
For `COc1ccccc1-c1nc(C(=O)N2CCOCC2)n2ccncc12` the value was over 100 µM; for `CN(C)c1cncc(-c2ccnc3c2ccn3C)n1`, over 100 µM; for `Cc1nc(NC(=O)CN2C(=O)c3ccccc3NC2C(C)C)sc1C` (stereo unspecified), over 100 µM.
On to `CC(C)c1ncc2c(n1)CN(CC(=O)Nc1ccc(Cl)cn1)CC2`, for which the IC50 is over 100 µM.
Regarding `CCOc1ccc2[nH]c(=O)c(CN3CCC(O)CC3)cc2c1`, the IC50 was over 100 µM.
Take `O=C(c1cc(-c2cccnc2)[nH]n1)N1CCCC(c2cnccn2)C1` (stereo unspecified): the IC50 was over 100 µM.

For orientation: IC50 means the concentration at which inhibition is half-maximal.
